From patent US20050215544A1, “Methods of treating HIV infection” (priority 2004, published 2005)

Columns and labels:
HIV-1 LAI [1] = assay: microbe, parasite or virus in culture
Procedure: (§1) Virus and cell lines. The T-cell lines, MT-2 and PM-1 were obtained through the AIDS Research and Reference Reagent Program, NIAID, and were contributed by Dr. D. Richman and Dr. R. Gallo, respectively. Both cell lines were cultured in RPMI 1640 medium supplemented with 10% fetal bovine serum, 2 mM L-glutamine and sub-cultured twice a week. The LAI strain of HIV-1 was obtained from the Fred Hutchinson Cancer Research Center, and the Bal strain was from NIH. Both virus stocks were amplified and titered in MT-2 cells (LAI) and PM-1 cells (Bal) using a virus infectivity assay.
(§2) Drug Susceptibility and Cytotoxicity Assays. For drug susceptibility assays, MT-2 cells were infected with HIV-1 LAI (or PM-1 cells with HIV-1 Bal) at an MOI of 0.005, and seeded into 96-well microtiter plates ([…] cells/ml) containing serial dilutions of test compounds. […] Each drug ratio consisted of an array of 3-fold serial dilutions, and was performed in quadruplicate. The plates were incubated at 37° C./5% CO2. The MT-2 cells infected with HIV-1 LAI were incubated for 5 days. On day-five post-infection, 20 μl from each well was harvested and quantitated by a reverse transcriptase (RT) assay, or in samples involving non-nucleoside RT inhibitors, an MTS assay. The PM-1 cells infected with HIV-1 Bal and used for studying the combinations with CCR5 inhibitors were incubated for six days. On day-six post-infection, 20 μl from each well was harvested, 20- and 50-fold diluted and quantitated by p24 assay. Cytotoxicity assays were performed using uninfected cells, exposed to the same drug combinations, and incubated for six days. Cell viability was determined by an MTS assay. The CC50 values were calculated by using the exponential form of the median effect equation as mentioned below for calculation of EC50.
(§3) In this equation, Fa stands for “fraction affected,” and represents the fraction of the viral load that has been inactivated. […] ED50 is drug concentration that is expected to reduce the amount of virus by 50%, and m is a parameter that reflects the slope of the concentration-response curve.
In carrying out the combination experiments below, the EC50 for Compound 1 and each comparator compound was determined during the course of each study, and used in the subsequent data analysis.

HIV-1 LAI [2] = assay: Two-drug combination antiviral assay with Compound 1 (combination indices, Chou and Rideout); format: cell-based; details: combination with Compound 1; for Combination Indices at 50% HIV Inhibition (Confidence Interval) / Combination Indices at 75% HIV Inhibition (Confidence Interval) / Combination Indices at 90% HIV Inhibition (Confidence Interval): 95% CI in parenthesis; for Overall Result of two-drug combination: all ratios and inhibition levels
Procedure: as §1, §2
Analysis of Drug Combination Effects. For determination of CI values, drugs were diluted in a fixed ratio and multiple ratios were analyzed. The drug serial dilutions spanned a range of concentrations near the EC50 value of each compound, so that equivalent antiviral activities could be compared. Concentration-response curves were estimated for each individual drug and every combination using the median-effect equation. The equation was fit using a nonlinear regression routine (Proc Nlin) in PC SAS version 8.01 (SAS Institute Inc., SAS Version 8.01, Cary, NC: SAS Institute Inc., 1990).
as §3
To assess antiviral effects of different drug combination treatments, combination indices (CIs) were calculated according to Chou and Rideout. The combination index was computed as CI=[D]1/[Dm]1+[D]2/[Dm]2
In this equation [Dm]1 and [Dm]2 are the concentrations of drugs that would individually produce a specific level of effect, while [D]1 and [D]2 are the concentrations of drugs in combination that would produce the same level of effect.
Theoretically, additivity is implied if the CI is equal to one, synergy if the CI is less than one, and antagonism if the CI is greater than one. […] At best, we can construct a range that contains the likely values for the CI, given the noise in the data. In this report, these ranges are reported in parentheses next to each point estimate of the CI. […] If the range fell entirely above 1.0, we would infer antagonistic behavior. If the range were to include 1.0, we would infer additivity.

[3] = Human immunodeficiency virus 1, MT2, 120 h
[4] = EC50 ratio 1:1 (Compound 1 to comparator)
[5] = EC50 ratio 1:2.5 (Compound 1 to comparator)
[6] = EC50 ratio 2.5:1 (Compound 1 to comparator)

Nc1ccn([C@@H]2CS[C@H](CO)O2)c(=O)n1 [Lamivudine]
EC50 (HIV-1 LAI [1]; [3]): 30 nM
Combination Indices at 50% HIV Inhibition (Confidence Interval) (HIV-1 LAI [2]; [4]): 0.57 (0.41, 0.73)
Combination Indices at 75% HIV Inhibition (Confidence Interval) (HIV-1 LAI [2]; [4]): 0.73 (0.44, 1.02)
Combination Indices at 90% HIV Inhibition (Confidence Interval) (HIV-1 LAI [2]; [4]): 1.00 (0.37, 1.62)
Combination Indices at 50% HIV Inhibition (Confidence Interval) (HIV-1 LAI [2]; [5]): 0.17 (0.13, 0.21)
Combination Indices at 75% HIV Inhibition (Confidence Interval) (HIV-1 LAI [2]; [5]): 0.33 (0.23, 0.43)
Combination Indices at 90% HIV Inhibition (Confidence Interval) (HIV-1 LAI [2]; [5]): 0.70 (0.33, 1.06)
Combination Indices at 50% HIV Inhibition (Confidence Interval) (HIV-1 LAI [2]; [6]): 0.18 (0.13, 0.22)
Combination Indices at 75% HIV Inhibition (Confidence Interval) (HIV-1 LAI [2]; [6]): 0.38 (0.26, 0.49)
Combination Indices at 90% HIV Inhibition (Confidence Interval) (HIV-1 LAI [2]; [6]): 0.85 (0.40, 1.29)

CC(C)CN(C[C@@H](O)[C@H](Cc1ccccc1)NC(=O)O[C@H]1CCOC1)S(=O)(=O)c1ccc(N)cc1 [Amprenavir]
EC50 (HIV-1 LAI [1]; [3]): 35 nM
Combination Indices at 50% HIV Inhibition (Confidence Interval) (HIV-1 LAI [2]; [4]): 0.47 (0.33, 0.62)
Combination Indices at 75% HIV Inhibition (Confidence Interval) (HIV-1 LAI [2]; [4]): 0.76 (0.44, 1.09)
Combination Indices at 90% HIV Inhibition (Confidence Interval) (HIV-1 LAI [2]; [4]): 1.37 (6.46, 2.28)
Combination Indices at 50% HIV Inhibition (Confidence Interval) (HIV-1 LAI [2]; [5]): 0.63 (0.45, 0.81)
Combination Indices at 75% HIV Inhibition (Confidence Interval) (HIV-1 LAI [2]; [5]): 0.72 (0.44, 1.01)
Combination Indices at 90% HIV Inhibition (Confidence Interval) (HIV-1 LAI [2]; [5]): 0.99 (0.38, 1.60)
Combination Indices at 50% HIV Inhibition (Confidence Interval) (HIV-1 LAI [2]; [6]): 0.20 (0.12, 0.28)
Combination Indices at 75% HIV Inhibition (Confidence Interval) (HIV-1 LAI [2]; [6]): 0.60 (0.28, 0.92)
Combination Indices at 90% HIV Inhibition (Confidence Interval) (HIV-1 LAI [2]; [6]): 1.87 (0.24, 3.50)
Overall Result of two-drug combination (HIV-1 LAI [2]): Additive-

COC(=O)N[C@H](C(=O)N[C@@H](Cc1ccccc1)[C@@H](O)CN(Cc1ccc(-c2ccccn2)cc1)NC(=O)[C@@H](NC(=O)OC)C(C)(C)C)C(C)(C)C [Atazanavir]
EC50 (HIV-1 LAI [1]; [3]): 0.5 nM
Combination Indices at 50% HIV Inhibition (Confidence Interval) (HIV-1 LAI [2]; [4]): 0.76 (0.64, 0.89)
Combination Indices at 75% HIV Inhibition (Confidence Interval) (HIV-1 LAI [2]; [4]): 0.89 (0.69, 1.10)
Combination Indices at 90% HIV Inhibition (Confidence Interval) (HIV-1 LAI [2]; [4]): 1.07 (0.68, 1.46)
Combination Indices at 50% HIV Inhibition (Confidence Interval) (HIV-1 LAI [2]; [5]): 0.28 (0.25, 0.31)
Combination Indices at 75% HIV Inhibition (Confidence Interval) (HIV-1 LAI [2]; [5]): 0.38 (0.33, 0.44)
Combination Indices at 90% HIV Inhibition (Confidence Interval) (HIV-1 LAI [2]; [5]): 0.54 (0.42, 0.66)
Combination Indices at 50% HIV Inhibition (Confidence Interval) (HIV-1 LAI [2]; [6]): 0.08 (0.07, 0.09)
Combination Indices at 75% HIV Inhibition (Confidence Interval) (HIV-1 LAI [2]; [6]): 0.14 (0.12, 0.17)
Combination Indices at 90% HIV Inhibition (Confidence Interval) (HIV-1 LAI [2]; [6]): 0.25 (0.18, 0.33)
Overall Result of two-drug combination (HIV-1 LAI [2]): Additive-

C[C@H](Cn1cnc2c(N)ncnc21)OCP(=O)(O)O [Tenofovir]
EC50 (HIV-1 LAI [1]; MT-2 cells infected with HIV-1 LAI, MOI 0.005, 5 days, single drug): 13 nM
Combination Indices at 50% HIV Inhibition (Confidence Interval) (HIV-1 LAI [2]; [4]): 0.11 (0.09, 0.13)
Combination Indices at 75% HIV Inhibition (Confidence Interval) (HIV-1 LAI [2]; [4]): 0.22 (0.17, 0.27)
Combination Indices at 90% HIV Inhibition (Confidence Interval) (HIV-1 LAI [2]; [4]): 0.54 (0.31, 0.76)
Combination Indices at 50% HIV Inhibition (Confidence Interval) (HIV-1 LAI [2]; [5]): 0.13 (0.11, 0.15)
Combination Indices at 75% HIV Inhibition (Confidence Interval) (HIV-1 LAI [2]; [5]): 0.23 (0.18, 0.28)
Combination Indices at 90% HIV Inhibition (Confidence Interval) (HIV-1 LAI [2]; [5]): 0.50 (0.30, 0.70)
Combination Indices at 50% HIV Inhibition (Confidence Interval) (HIV-1 LAI [2]; [6]): 0.16 (0.13, 0.19)
Combination Indices at 75% HIV Inhibition (Confidence Interval) (HIV-1 LAI [2]; [6]): 0.22 (0.17, 0.28)
Combination Indices at 90% HIV Inhibition (Confidence Interval) (HIV-1 LAI [2]; [6]): 0.38 (0.22, 0.54)
Overall Result of two-drug combination (HIV-1 LAI [2]): Synergistic

CC(C)c1nc(CN(C)C(=O)N[C@H](C(=O)N[C@@H](Cc2ccccc2)C[C@H](O)[C@H](Cc2ccccc2)NC(=O)OCc2cncs2)C(C)C)cs1 [Ritonavir]
EC50 (HIV-1 LAI [1]; [3]): 5 nM
Combination Indices at 50% HIV Inhibition (Confidence Interval) (HIV-1 LAI [2]; [4]): 0.25 (0.19, 0.31)
Combination Indices at 75% HIV Inhibition (Confidence Interval) (HIV-1 LAI [2]; [4]): 0.38 (0.26, 0.50)
Combination Indices at 90% HIV Inhibition (Confidence Interval) (HIV-1 LAI [2]; [4]): 0.58 (0.28, 0.88)
Combination Indices at 50% HIV Inhibition (Confidence Interval) (HIV-1 LAI [2]; [5]): 0.16 (0.12, 0.20)
Combination Indices at 75% HIV Inhibition (Confidence Interval) (HIV-1 LAI [2]; [5]): 0.25 (0.18, 0.32)
Combination Indices at 90% HIV Inhibition (Confidence Interval) (HIV-1 LAI [2]; [5]): 0.40 (0.19, 0.60)
Combination Indices at 50% HIV Inhibition (Confidence Interval) (HIV-1 LAI [2]; [6]): 0.40 (0.23, 0.57)
Combination Indices at 75% HIV Inhibition (Confidence Interval) (HIV-1 LAI [2]; [6]): 0.66 (0.29, 1.04)
Combination Indices at 90% HIV Inhibition (Confidence Interval) (HIV-1 LAI [2]; [6]): 1.11 (0.05, 2.17)
Overall Result of two-drug combination (HIV-1 LAI [2]): Additive-
